Experimental findings from patent US10689331B2, “IDO inhibitors” (Bristol-Myers Squibb Company, priority 2015, dated 2020) are described below.

The target of this assay is T1, human IDO1 (Homo sapiens, UniProt P14902).
T1 construct: expressed in transfected cells
T1 sequence (P14902 whole entry): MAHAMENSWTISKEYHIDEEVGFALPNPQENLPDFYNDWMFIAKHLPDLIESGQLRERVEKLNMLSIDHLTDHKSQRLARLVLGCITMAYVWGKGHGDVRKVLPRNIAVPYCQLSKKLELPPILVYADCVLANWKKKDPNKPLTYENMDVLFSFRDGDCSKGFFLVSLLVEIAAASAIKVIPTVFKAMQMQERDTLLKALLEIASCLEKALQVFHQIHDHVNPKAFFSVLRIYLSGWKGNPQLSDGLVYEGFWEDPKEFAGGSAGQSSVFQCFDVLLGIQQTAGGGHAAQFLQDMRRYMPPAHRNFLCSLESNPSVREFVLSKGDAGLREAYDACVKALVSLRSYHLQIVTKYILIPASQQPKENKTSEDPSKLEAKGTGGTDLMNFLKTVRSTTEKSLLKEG
The assay is described as follows: HEK Human IDO-1 inhibition assay (kynurenine readout, Ehrlich reagent, absorbance 490 nm). Format: cell-based. The conditions noted are these: human IDO1/HEK293 cells, incubated 20 hours with compound; 500 nM reference standard = 100% inhibition. The essentials: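 HEK293 cells stably expressing human IDO1, treated with compound for 20 h at 37 °C in phenol red-free RPMI/10% FBS. Kynurenine detected after TCA (0.2% final, 50 °C, 30 min) by Ehrlich reagent absorbance at 490 nm; IC50 normalised to 500 nM reference standard (100%) and DMSO (0%).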
In general, IC50 refers to the midpoint of a concentration-inhibition curve. Take `CC(C)CN(c1ccc(OCC(=O)O)cc1NC(=O)Nc1ccc(Cl)cc1F)C1COC1` [Example 147, 2-(3-(3-(4-chloro-2-fluorophenyl)ureido)-4-(isobutyl(oxetan-3-yl)amino)phenoxy)acetic acid]: the IC50 was at least 0.1 µM.

As for `CC(Oc1ccc(N(CCC(F)(F)F)C2CCOCC2)c(NC(=O)Nc2ccc(Cl)cc2F)c1)C(=O)O` (stereo not drawn) [Example 148, 2-(3-(3-(4-chloro-2-fluorophenyl)ureido)-4-((tetrahydro-2H-pyran-4-yl)(3,3,3-trifluoropropyl)amino)phenoxy)propanoic acid], the IC50 is at least 0.1 µM.

Regarding `CC(C)CN(c1ccc(OCC(=O)O)cc1NC(=O)Nc1ccc(Cl)cc1F)C1CCC(O)CC1` (stereo not drawn) [Example 149, 2-(3-(3-(4-chloro-2-fluorophenyl)ureido)-4-((0-4-hydroxycyclohexyl)(isobutyl)amino)phenoxy)acetic acid], the IC50 was at least 0.1 µM.

For `CC(C)CN(c1ccc(OCC(=O)O)cc1NC(=O)Nc1ccc(Cl)cc1F)C1CCC(O)CC1` (stereo not drawn) [Example 150, 2-(3-(3-(4-chloro-2-fluorophenyl)ureido)-4-((( )-4 hydroxycyclohexyl)(isobutyl)amino)phenoxy)acetic acid], the IC50 was at least 0.1 µM.

For `CC(C)CN(c1ccc(OCC(=O)O)cc1NC(=O)Nc1ccc(Cl)cc1F)C1CCOCC1` [Example 151, 2-(3-(3-(4-chloro-2-fluorophenyl)ureido)-4-(isobutyl(tetrahydro-2H-pyran-4-yl)amino)phenoxy)acetic acid], the IC50 is at least 0.1 µM.

As to `COC1CCC(N(CC(C)C)c2ccc(OCC(=O)O)cc2NC(=O)Nc2ccc(Cl)cc2F)CC1` (stereo not drawn) [Example 152, 2-(3-(3-(4-chloro-2-fluorophenyl)ureido)-4-(isobutyl(0-4-methoxycyclohexyl)amino)phenoxy)acetic acid], the IC50 is at least 0.1 µM.

As to `CC(C)CN(c1ccc(OCC(N)=O)cc1NC(=O)Nc1ccc(Cl)cc1F)C1CCCCC1` [Example 153, 2-(3-(3-(4-chloro-2-fluorophenyl)ureido)-4-(cyclohexyl(isobutyl)amino)phenoxy)acetamide], the IC50 is at least 0.1 µM.

As for `CC(C)CN(c1ccc(OCC(=O)Nc2ncco2)cc1NC(=O)Nc1ccc(Cl)cc1F)C1CCCCC1` [Example 154, 2-(3-(3-(4-chloro-2-fluorophenyl)ureido)-4-(cyclohexyl(isobutyl)amino)phenoxy)-N-(oxazol-2-yl)acetamide], the IC50 is below 0.005 µM.

Take `CC(C)CN(c1ccc(OCC(=O)Nc2nccs2)cc1NC(=O)Nc1ccc(Cl)cc1F)C1CCCCC1` [Example 155, 2-(3-(3-(4-chloro-2-fluorophenyl)ureido)-4-(cyclohexyl(isobutyl)amino)phenoxy)-N-(thiazol-2-yl)acetamide]: the IC50 is at least 0.1 µM.

As to `CC(C)CN(c1ccc(OCc2ncco2)cc1NC(=O)Nc1ccc(Cl)cc1F)C1CCCCC1` [Example 156, 1-(4-chloro-2-fluorophenyl)-3-(2-(cyclohexyl(isobutyl)amino)-5-(oxazol-2-ylmethoxy)phenyl)urea], the IC50 was below 0.1 µM.

As to `CC(C)CN(c1ccc(OC(C)c2ncco2)cc1NC(=O)Nc1ccc(Cl)cc1F)C1CCCCC1` (stereo not drawn) [Example 157, 1-(4-chloro-2-fluorophenyl)-3-(2-(cyclohexyl(isobutyl)amino)-5-(1-(oxazol-2-yl)ethoxy)phenyl)urea], the IC50 was below 0.1 µM.

For `CCCN(Cc1ccccc1)c1ccc(OCC(=O)O)cc1NC(=O)Nc1ccc(Cl)cc1F` [Example 158, 2-(4-(benzyl(propyl)amino)-3-(3-(4-chloro-2-fluorophenyl)ureido)phenoxy)acetic acid], the IC50 was below 0.1 µM.

In the case of `CCCN(Cc1ccccc1)c1ccc(OCC(=O)O)cc1NC(=O)Nc1ccc(C)cc1` [Example 159, 2-(4-(benzyl(propyl)amino)-3-(3-(p-tolyl)ureido)phenoxy)acetic acid], the IC50 was at least 0.1 µM.

For `CCCN(Cc1ccccc1)c1ccc(OCC(=O)O)cc1NC(=O)Nc1ccc(OC(F)(F)F)cc1` [Example 160, 2-(4-(benzyl(propyl)amino)-3-(3-(4-(trifluoromethoxy)phenyl)ureido)phenoxy)acetic acid], the IC50 was at least 0.1 µM.

For the compound `CCCN(Cc1ccccc1)c1ccc(OCC(=O)O)cc1NC(=O)Nc1ccc(OCC)cc1` [Example 161, 2-(4-(benzyl(propyl)amino)-3-(3-(4-ethoxyphenyl)ureido)phenoxy)acetic acid], the IC50 is at least 0.1 µM.

Regarding `CCCN(Cc1ccccc1)c1ccc(OCC(=O)O)cc1NC(=O)Nc1ccc(C(F)(F)F)cc1` [Example 162, 2-(4-(benzyl(propyl)amino)-3-(3-(4-(trifluoromethyl)phenyl)ureido)phenoxy)acetic acid], the IC50 is at least 0.1 µM.

With `CC(C)CN(Cc1ccc(Cl)cc1)c1ccc(OCC(=O)O)cc1NC(=O)Nc1ccc(Cl)cc1F` [Example 163, 2-(3-(3-(4-chloro-2-fluorophenyl)ureido)-4-((4-chlorobenzyl)(isobutyl)amino)phenoxy)acetic acid], the IC50 was below 0.1 µM.

As to `CCCN(Cc1ccc(Cl)cc1)c1ccc(OCC(=O)O)cc1NC(=O)Nc1ccc(Cl)cc1F` [Example 164, 2-(3-(3-(4-chloro-2-fluorophenyl)ureido)-4-((4-chlorobenzyl)(propyl)amino)phenoxy)acetic acid], the IC50 is below 0.1 µM.

Consider `CCCN(Cc1ccccc1)c1ccc(OCC(=O)O)cc1NC(=O)Cc1ccc(Cl)cc1F` [Example 165, 2-(4-(benzyl(propyl)amino)-3-(2-(4-chloro-2-fluorophenyl)acetamido)phenoxy)acetic acid], for which the IC50 is at least 0.1 µM.

Consider `CCCN(Cc1ccccc1)c1ccc(OCC(=O)O)cc1NC(=O)Cc1ccc(C)cc1` [Example 166, 2-(4-(benzyl(propyl)amino)-3-(2-(p-tolyl)acetamido)phenoxy)acetic acid], for which the 50% inhibitory concentration (IC50) was at least 0.1 µM.

Regarding `CC(C)CN(Cc1ccc(Cl)cc1)c1ccc(OCC(=O)O)cc1NC(=O)Cc1ccc(Cl)cc1F` [Example 167, 2-(3-(2-(4-chloro-2-fluorophenyl)acetamido)-4-((4-chlorobenzyl)(isobutyl)amino)phenoxy)acetic acid], the IC50 is at least 0.1 µM.
